This is an account of results in paper PMC6646369, “A new bioavailable fenretinide formulation with antiproliferative, antimetabolic, and cytotoxic effects on solid tumors” (Cell Death & Disease, 2019).

Common to all, as to assay type: cell-based, human
The subject of experiment [1] is LCSC6 lung cancer spheroid cells. As to the kind of experiment: Cell viability assay (CellTiter-Glo). The procedure: (§1) Briefly, lung and colorectal spheroids were dissociated mechanically or with TrypLE Express (Thermo Fisher Scientific) respectively and seeded 3 × 10^3 per well in 96-well plates (three replicates per experimental point) in serum-free medium, and incubated in a humidified atmosphere at 37 °C, 5% CO2. Cells were treated with the respective compounds and analysed after the appropriate time period as described in detail in Figure Legends. Luminescence was detected with a DTX880 multimode microplate reader (Beckman Coulter, Brea, CA, USA).
Background: ATP-based viability assays read luminescence as a measure of living cells.

Experiment [2] relates to CSC 7 colorectal spheroid cells. The experiment is described as follows: Cell viability assay (CellTiter-Glo). The procedure:
as §1, with “Cell viability upon treatment with NanoFEN, zVAD, NAC, 3-MA, Myriocin, PPMP, GT11, SA and Rapamycin was determined by CellTiter-Glo luminescent cell viability assay (Promega, Madison, WI, USA) according to the manufacturer’s directions. Briefly,” for “Briefly,”

Experiment [3] deals with reactive oxygen species (ROS) in LCSC6. The experiment is described as follows: Measurement of intracellular ROS levels (CM-H2DCFDA, flow cytometer). The note with it: LCSC6, NAC 2mM for 1h, then NanoFEN 4,9µM for 48 hours. The procedure:
An equal number of dissociated spheroid cells (2.5 × 10^5) were seeded in 6-well cell culture plates. Briefly, each cell line was incubated with NanoFEN at IC50 concentration and pre-treated for 1 h with the antioxidant N-Acetyl-Cysteine (NAC). At different times, the cells were washed twice with pre-warmed Phosphate Saline Buffer (PBS) and then incubated in the same buffer containing 5 μM CM-H2DCFDA with DMSO alone at 37 °C. The fluorescence intensity of DCF was measured at 527 nm emission wavelength after excitation at 492 nm at 1 h intervals for up to 48 h using a Flow Cytometer Accuri (Becton Dickinson). An increase in fluorescence intensity as arbitrary units indicated the net generation of intracellular ROS.

Experiment [4] concerns LCSC2 lung cancer spheroid cells. The experiment is described as follows: Cell viability assay (CellTiter-Glo). The following applies: LCSC2, GT11 0,5µM plus SA 2µM plus Rapamycin 10nM, 48 hours. The procedure: as §1, with “Cell viability upon treatment with NanoFEN, zVAD, NAC, 3-MA, Myriocin, PPMP, GT11, SA and Rapamycin was determined by CellTiter-Glo luminescent cell viability assay (Promega, Madison, WI, USA) according to the manufacturer’s directions. Briefly,” for “Briefly,”

In experiment [5] the test system is Aldefluor activity (ALDH) in LCSC6. The experiment is described as follows: Cytofluorimetric analysis of Aldefluor activity. The note with it: LCSC6, representative analysis; NanoFEN at IC50 dose, Gemcytabine 25 µM; CTRL 38,6%. The procedure: Values represent mean ± SD of three independent experiments. **P < 0.01; ***P < 0.001 from two-tailed t-test. d Schematic representation of stem-like factors (repressed in grey) emerged from RPPA analysis of lung CSCs treated as described in Fig. 4a. e Cytofluorimetric analysis of Aldefluor activity on LCSC6 treated with NanoFEN at IC50 dose and Gemcytabine 25 μM for 48 h. Values represent mean ± SD of three independent experiments. **P < 0.01; ***P < 0.001 from two-tailed t-test. f qRT-PCR analysis of indicated genes on whole tumor lysates derived from LCSC6 xenografts, untreated or treated with NanoFEN 30 mg/Kg/week and Cis 3 mg/Kg/week and Gem 60 mg/Kg/week (Cis + Gem). Values represent mean ± SD of three independent experiments. *P < 0.05; **P < 0.01 from two-tailed t-test. g Flow cytometry analysis of TOP-GFP.mc-transduced CSC7, untreated and treated with NanoFEN at the IC50 dose 0.2 μM and OXA 10 μM for 48 h. Values represent mean ± SD of three independent experiments. **P < 0.01 from two-tailed t-test. h Volume of xenografts derived from CSC10 transduced with TOP-GFP.mc untreated (black downward triangles) or treated with vehicle or treated NanoFEN 30 mg/Kg/week (green upward triangles) and OXA 5 mg/Kg/week plus 5FU 12.5 mg/Kg/week (red squares). […]

As to `CC(=O)N[C@@H](CS)C(=O)O` [NAC, N-Acetyl-L-Cysteine], the “effect on NanoFEN-induced death (cell viability)” value (“effect on NanoFEN-induced death” below) in experiment [1] (LCSC6 pretreated with NAC 2 mM for 1 h, then NanoFEN 4.9 μM, 48 h) is on record as “partially rescued”; in experiment [2] (CSC7 pretreated with NAC 2 mM for 1 h, then NanoFEN 0.2 μM, 48 h) it was “partially rescued”. Further, the “ROS levels in NanoFEN-treated cells after pretreatment” value in experiment [3] is reported as “reduced”.

Regarding `CO[C@H]1C[C@@H]2CC[C@@H](C)[C@@](O)(O2)C(=O)C(=O)N2CCCC[C@H]2C(=O)O[C@H]([C@H](C)C[C@@H]2CC[C@@H](O)[C@H](OC)C2)CC(=O)[C@H](C)/C=C(\C)[C@@H](O)[C@@H](OC)C(=O)[C@H](C)C[C@H](C)/C=C/C=C/C=C/1C` [rapamycin], the “effect on the toxic effects of the SA/GT11 combination (cell viability)” value was “significantly potentiated” in experiment [1] (LCSC6, GT11 0.5 μM plus SA 2 μM plus Rapamycin 10 nM, 48 h); “significantly potentiated” in experiment [2] (CSC7, GT11 0.5 μM plus SA 2 μM plus Rapamycin 10 nM, 48 h); “significantly potentiated” in experiment [4].

Consider `CCCCCCC(=O)CCCCCC/C=C/C[C@@H](O)[C@H](O)[C@@](N)(CO)C(=O)O` [myriocin], for which the “effect on NanoFEN-induced death” value in experiment [1] (LCSC6, Myriocin 1 μM plus NanoFEN 4.9 μM, 48 h) was “partially protected”; in experiment [2] (CSC7, Myriocin 1 μM plus NanoFEN 0.2 μM, 48 h) it was “partially protected”.

As to `CCCCCCCCCCCCCCCC(=O)NC(CN1CCOCC1)C(O)c1ccccc1` (stereo not shown) [PPMP, 1-phenyl-2-palmitoylamino-3-morpholino-1-propanol], the “effect on NanoFEN-induced death” value in experiment [1] (LCSC6, PPMP 10 μM plus NanoFEN 4.9 μM, 48 h) was “unable to block”; in experiment [2] (CSC7, PPMP 10 μM plus NanoFEN 0.2 μM, 48 h), “unable to block”.

On to `Nc1ccn([C@@H]2O[C@H](CO)[C@@H](O)C2(F)F)c(=O)n1` [Gem, gemcitabine], for which the “ALDH+” value in experiment [5] was 74,6%.

On to `COC(=O)C[C@H](NC(=O)[C@H](C)NC(=O)[C@@H](NC(=O)OCc1ccccc1)C(C)C)C(=O)CF` (racemic) [zVAD-fmk, z-Val-Ala-DL-Asp-fluoromethylketone], for which the “effect on NanoFEN-induced toxicity (cell viability)” value is listed as “did not substantially inhibit” in experiment [1] (LCSC6 pretreated with zVAD 40 μΜ, then NanoFEN 4.9 μM, 48 h) and “did not substantially inhibit” in experiment [2] (CSC7 pretreated with zVAD 40 μΜ, then NanoFEN 0.2 μM, 48 h).

Take `CCCCCCCCCCCCCCC[C@@H](O)[C@@H](N)CO` [SA, sphinganine]: the cell viability result in experiment [1] (LCSC6, 48 hours, SA 2, 4, 6 µM, GT11 0,5, 2, 5 µM) is “dose-dependent viability decrease”.

Take `Cn1cnc(N)c2ncnc1-2` [3-MA, 3-Methyladenine]: the “effect on NanoFEN-induced death” value was “able to counteract” in experiment [1] (LCSC6, 3-MA 5 mM plus NanoFEN 4.9 μM, 24 h) and “able to counteract” in experiment [2] (CSC7, 3-MA 5 mM plus NanoFEN 0.2 μM, 24 h).
